Reference: patent publication US20260158008A1, “POLYMORPHS OF THE MESYLATE SALT OF LINAPRAZAN GLURATE” (Cinclus Pharma Holding AB (Publ), priority 2021, published 2026)
Like-named read-outs stand apart in the source and are kept apart here.

Columns and labels:
gastric acid production [1] = settings: cited from earlier work
[2] = Plasma concentration after oral administration of linaprazan glurate; format: in vivo, human
[3] = cited from earlier work
[4] = Dynamic vapour sorption (DVS) analysis, hygroscopicity / water content; format: physicochemical
Description: Analyses were performed on an SMS DVS-1 instrument.
(§1) Method 1: A few mg of the substance was added into an Al pan and exposed to stepwise RH changes during two identical consecutive cycles according to 0-10-20-30-40-50-60-70-80-90-80-70-60-50-40-30-20-10-0% RH using open loop mode. The experiments were performed using a gas flow rate of 200 ml/min and at 25° C. The dm/dt criteria applied were 0.001 weight-%/min during a 5-minutes window, with a maximum allowed time of 360 minutes and a minimum allowed time of 10 minutes for all steps, except for the first stage which was set to a 12-hours fix time.
as §1, with “2:” for “1:”, “steps.” for “steps, except for the first stage which was set to a 12-hours fix time.”
as §1, with “3:” for “1:”, “6-hours” for “12-hours”
The hygroscopicity of sample 1 of Form A (obtained from a slurry in 2-propanol) was investigated using method 1. […]
For sample 2 of Form A (obtained from a slurry in acetone), a TGA-dried sample was investigated using method 2. […] In the second cycle, “pure” water absorption and desorption is recorded. […]

gastric acid production [5] = settings: cited from earlier work; remark: listed apart in the source
[6] = up to 24 hours
Description: The solubility of Form A in Fed State Simulated Gastric Fluid (FEDGAS) mid stage, second version of Fasted State Simulated Intestinal Fluid (FaSSIF-V2) and second version of Fed State Simulated Intestinal Fluid (FeSSIF-V2) was studied.
To 90 mL of Milli Q water were added 139 mg of NaOH, 222 mg of maleic acid and 401 mg of NaCl and the resulting mixture was stirred until fully dissolved. The pH was adjusted to 6.5 with 1 M HCl and 1 M NaOH, and made up to 100 mL with Milli Q water. 179 mg of FaSSIF-V2 (Biorelevant, batch V2FAS-1020-A) was mixed with the prepared 100 ml of buffer, stirred until fully dissolved and equilibrated at RT for 1 hour before use.
To 90 ml of Milli Q water were added 327 mg of NaOH, 639 mg of maleic acid and 733 mg of NaCl and the resulting mixture was stirred until fully dissolved. The pH was adjusted to 5.8 with 1 M HCl and 1 M NaOH, and made up to 100 mL with Milli Q water. 976 mg of FeSSIF-V2 (Biorelevant, batch V2FES-1020-A) was mixed with the prepared 100 ml of buffer, stirred until fully dissolved and equilibrated at RT for 1 hour before use. […]
Saturated solutions were prepared in 4 ml vials by adding fixed weights (excess amounts) of Form A to 2 mL of each of the different buffer solutions. […] Concentrations were calculated from a calibration curve based on 7 calibration standards (stock solutions of 100 and 250 μg/mL, and serial dilutions thereof).

[7] = XRPD check of solid form after TGA or DVS; format: physicochemical
Description: Analyses were performed on a PanAlytical X'Pert Pro diffractometer equipped with a Cu-anode (45 kV, 40 mA), a Kα-1 Johansson monochromator (1.540598 Å) and a Pixcel detector. The 2-theta range was 2-35°, using a step size of 0.013° and a scan speed of 0.10°/s (“6 minutes scan”) or 0.03°/s (“20 minutes scan”). Slow spinning sample holders were used. The samples were smeared out on zero background wafers of Si, producing a flat powdered surface. The measurements were performed using a programmable incident divergency slit.
Method 1: A few mg of sample was gently charged into open Pt-pans and analysed by weight in a flow of dry nitrogen gas (20 mL/min), to ensure an inert atmosphere, from 25 to 140° C. using a continuous scan speed of 10° C./min, followed by an isothermal step at 140° C. for 60 minutes (ended manually if the drying process was completed before 60 minutes).
as §1, with “2:” for “1:”, “steps.” for “steps, except for the first stage which was set to a 12-hours fix time.”

## Cc1cccc(C)c1CNc1cc(C(=O)NCCOC(=O)CCCC(=O)O)cn2c(C)c(C)nc12 [linaprazan glurate, 5-{2-[({8-[(2,6-dimethylbenzyl)amino]-2,3-dimethylimidazo[1,2-a]pyridine-6-yl}carbonyl)-amino]ethoxy}-5-oxopentanoic acid]
Gastric acid production [1]; human, in vivo
  control of gastric acid production compared to linaprazan: total control of the gastric acid production for a longer time
  half-life in the body compared to linaprazan: longer half-life in the body
Gastric acid production [1]; single dose, clinical Phase I study
  time for which intragastric acidity is maintained above pH 4: 24 hours
[2]; in vivo
  metabolism following absorption into the blood stream: quickly metabolized into linaprazan
  plasma concentration: only very low and difficult to determine

## Cc1cccc(C)c1CNc1cc(C(=O)NCCOC(=O)CCCC(=O)O)cn2c(C)c(C)nc12 [Form A (free base)]
[3]; pH 1
  solubility in water: only slightly soluble
[3]; pH 6.8
  solubility in water: practically insoluble

## CS(=O)(=O)O.Cc1cccc(C)c1CNc1cc(C(=O)NCCOC(=O)CCCC(=O)O)cn2c(C)c(C)nc12 [Form B]
[4]; at 80% RH
  water content: about 3.4%

## Cc1cccc(C)c1CNc1cc(C(=O)NCCO)cn2c(C)c(C)nc12 [linaprazan]
Gastric acid production [5]; Phase I and II studies
  onset of action: fast onset of action and full effect at first dose
  tolerability: well tolerated
Gastric acid production [5]; in vivo
  duration of acid inhibition: too short duration of acid inhibition
  elimination: quickly eliminated from the body
[2]; human, plasma, oral, after 22 hours, estimated from Phase I studies of linaprazan glurate, read-out: minimal plasma concentration (Cmin) of linaprazan required to maintain intra-gastric pH above 4 for 24 hours
  concentration at 22 h: ≥ 240 nM

## CS(=O)(=O)O.Cc1cccc(C)c1CNc1cc(C(=O)NCCOC(=O)CCCC(=O)O)cn2c(C)c(C)nc12 [Form A]
[6]; FEDGAS mid stage pH 4.5 vs FaSSIF-V2 pH 6.5, 37° C.
  solubility in FEDGAS relative to FaSSIF-V2: about 20 times higher
[6]; FEDGAS mid stage pH 4.5 vs FeSSIF-V2 pH 5.8, 37° C.
  solubility in FEDGAS relative to FeSSIF-V2: about 7 times higher
[7]; after heating 25 to 140° C., TGA method 1
  solid form after the TGA experiment (XRPD): this form remained
[7]; after two cycles 0-90% RH, 25° C.
  solid form after the DVS-analysis (XRPD): this form remained
[4]; 0 to 90% RH, 25° C.
  water uptake with relative humidity: increases almost linearly with increasing relative humidity
[4]; relative humidity up to 90%, 25° C.
  stability at relative humidity: stable
